Experimental data from ChEMBL document CHEMBL1201862, “PubChem BioAssay data set” (2004).
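Results reflect a 48-hour exposure of cells in 96-well plates to compound at five concentrations. The concentration for 50% growth inhibition is given as GI50.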 The source made the active and inactive calls. Rule as the data show it: active = GI50 up to about 1.1 µM and inactive = higher.

Legend:
Assay in all cases: growth of human tumour cells (NCI), 48 h
DMS-273 = tested on: DMS-273
KM-20L2 = tested on: KM-20L2
LXFL 529 = tested on: LXFL 529
SNB-78 = tested on: SNB-78
DLD-1 = tested on: DLD-1
HOP-18 = tested on: HOP-18
M19-MEL = tested on: M19-MEL
RXF 631 = tested on: RXF 631
XF498 = tested on: XF498

SMILES	GI50 (DMS-273)	GI50 (KM-20L2)	GI50 (LXFL 529)	GI50 (SNB-78)	GI50 (DLD-1)	GI50 (HOP-18)	GI50 (M19-MEL)	GI50 (RXF 631)	GI50 (XF498)
O=C(O)CCCSC(=O)Nc1ccc(/N=N/c2ccccc2)cc1	> 100 µM (inactive)	> 100 µM (inactive)	> 100 µM (inactive)	> 100 µM (inactive)	–	–	–	–	–
O=C(/C=C/c1ccccc1Cl)c1cccc2ccccc12	13.4 µM (inactive)	7.06 µM (inactive)	3.06 µM (inactive)	20.3 µM (inactive)	8.51 µM (inactive)	16.1 µM (inactive)	11 µM (inactive)	–	–
CC[C@@]1(O)C(=O)OCc2c1cc1n(c2=O)Cc2cc3c(OC)cccc3nc2-1	< 0.01 µM (active)	0.0622 µM (active)	0.492 µM (active)	–	0.27 µM (active)	0.0425 µM (active)	0.056 µM (active)	0.0628 µM (active)	0.0942 µM (active)
CCCCCCCCCCCCCC(=O)OCC1OC(n2cc(F)c(=O)[nH]c2=O)C(N)C(OC(=O)CCCCCCCCCCCCC)C1O (stereo unspecified)	> 100 µM (inactive)	> 100 µM (inactive)	> 100 µM (inactive)	> 100 µM (inactive)	–	–	> 100 µM (inactive)	–	–
C[C@]12CC[C@H](OC(=O)Cc3ccc(N(CCCl)CCCl)cc3)CC1CC[C@@H]1C2CC[C@]2(C)NC(=O)CCC12 (stereo partly specified)	5.64 µM (inactive)	5.58 µM (inactive)	8.3 µM (inactive)	14.1 µM (inactive)	16.3 µM (inactive)	16.7 µM (inactive)	14.3 µM (inactive)	16 µM (inactive)	13.6 µM (inactive)
CC(=O)O[C@H]1C(=O)[C@@]2(C)C(C(OC(=O)c3ccccc3)C3[C@@H](O)C(OC(=O)[C@@H](O)[C@H](NC(=O)c4ccccc4)c4ccc(C(F)(F)F)cc4)C(C)=C1C3(C)C)[C@]1(OC(C)=O)CO[C@@H]1C[C@@H]2O (stereo partly specified)	11.7 µM (inactive)	8.73 µM (inactive)	15.2 µM (inactive)	> 25 µM (inactive)	> 25 µM (inactive)	–	> 25 µM (inactive)	–	–
Cc1cc(-c2ccccc2)cc2[n+]1CC=C2.[O-][Cl+3]([O-])([O-])[O-]	46.7 µM (inactive)	> 100 µM (inactive)	58.3 µM (inactive)	> 100 µM (inactive)	58.5 µM (inactive)	< 0.01 µM (active)	> 100 µM (inactive)	–	–
CC1(C)OC2C(CCP(=O)(O)O)OC(c3nc(C(N)=O)cs3)C2O1 (stereo unspecified)	> 100 µM (inactive)	> 100 µM (inactive)	> 100 µM (inactive)	–	> 100 µM (inactive)	> 100 µM (inactive)	> 100 µM (inactive)	> 100 µM (inactive)	–
COc1ccc(C(=O)C2=NON3OC23C(=O)c2ccc(OC)cc2)cc1 (stereo unspecified)	19.1 µM (inactive)	19.1 µM (inactive)	2.63 µM (inactive)	13 µM (inactive)	7.28 µM (inactive)	18.9 µM (inactive)	16.5 µM (inactive)	15.1 µM (inactive)	10 µM (inactive)
CCOP(=O)(OCC)/C(C#N)=C\c1ccsc1	> 100 µM (inactive)	> 100 µM (inactive)	> 100 µM (inactive)	> 100 µM (inactive)	> 100 µM (inactive)	> 100 µM (inactive)	> 100 µM (inactive)	–	> 100 µM (inactive)
N#CC(NNC(=O)Cc1ccccc1)c1ccccc1O (stereo unspecified)	6.59 µM (inactive)	–	15.2 µM (inactive)	80.5 µM (inactive)	47 µM (inactive)	13.2 µM (inactive)	7.96 µM (inactive)	–	–
CC(C)(CN1CCCCC1)C(=O)/C=C/c1ccc(Br)cc1	2 µM (inactive)	2.49 µM (inactive)	1.81 µM (inactive)	8.07 µM (inactive)	3.01 µM (inactive)	2.47 µM (inactive)	14.8 µM (inactive)	–	2.05 µM (inactive)
COc1ccc(NC(=O)/C(Cc2nc3ccccc3nc2O)=N\O)c(OC)c1	–	> 100 µM (inactive)	> 100 µM (inactive)	> 100 µM (inactive)	> 100 µM (inactive)	> 100 µM (inactive)	> 100 µM (inactive)	> 100 µM (inactive)	> 100 µM (inactive)
COc1ccc(CCc2cc(OC)cc(OC)c2)cc1	5.15 µM (inactive)	13.6 µM (inactive)	32.9 µM (inactive)	51.4 µM (inactive)	23.1 µM (inactive)	> 32.4 µM (inactive)	25.3 µM (inactive)	13.7 µM (inactive)	16.7 µM (inactive)
Cc1cc(C)c2[s+]snc2c1	47.1 µM (inactive)	> 100 µM (inactive)	34.4 µM (inactive)	84.3 µM (inactive)	> 100 µM (inactive)	44.8 µM (inactive)	> 100 µM (inactive)	96.6 µM (inactive)	30 µM (inactive)
CN(C)CCC(=O)/C=C\c1ccccc1	16.3 µM (inactive)	30.6 µM (inactive)	13.5 µM (inactive)	15.5 µM (inactive)	15.8 µM (inactive)	22.6 µM (inactive)	19.7 µM (inactive)	18.1 µM (inactive)	14.9 µM (inactive)
COc1ccc(C(=O)C#Cc2cnc(O)nc2O)cc1	14.9 µM (inactive)	9.86 µM (inactive)	3.36 µM (inactive)	16.1 µM (inactive)	6.32 µM (inactive)	24.5 µM (inactive)	8.93 µM (inactive)	8.89 µM (inactive)	–
CCN(CC)CCCCC1CCN(CC(=O)N2c3ccccc3NC(=O)CC2C)CC1 (stereo unspecified)	> 100 µM (inactive)	> 100 µM (inactive)	> 100 µM (inactive)	> 100 µM (inactive)	–	> 100 µM (inactive)	> 100 µM (inactive)	30.1 µM (inactive)	–
O=C(/C=C/c1ccccc1O)c1ccccc1O	> 100 µM (inactive)	> 100 µM (inactive)	–	> 100 µM (inactive)	> 100 µM (inactive)	–	> 100 µM (inactive)	–	–
O=C1CC2CCCC23CC2(CCN13)OCCO2 (stereo unspecified)	> 100 µM (inactive)	> 100 µM (inactive)	> 100 µM (inactive)	> 100 µM (inactive)	> 100 µM (inactive)	> 100 µM (inactive)	> 100 µM (inactive)	> 100 µM (inactive)	> 100 µM (inactive)
COC(=O)C[C@H]1CCC2(OCCO2)[C@]1(C)C(=O)OC	> 100 µM (inactive)	–	> 100 µM (inactive)	> 100 µM (inactive)	–	–	> 100 µM (inactive)	> 100 µM (inactive)	> 100 µM (inactive)
COC(=O)[C@@H](C)[C@H]1CC[C@@](C)(CCC2=C(C)CC3C=C(C)CCC3C2(C)C)OO1 (stereo partly specified)	2.18 µM (inactive)	1.7 µM (inactive)	1.03 µM (active)	2.23 µM (inactive)	0.962 µM (active)	–	1.77 µM (inactive)	2 µM (inactive)	–
